The values that follow come from patent US11712414B2, “Oral pharmaceutical composition for preventing or treating dry eye syndrome comprising rebamipide or a prodrug thereof” (SAMJIN PHARMACEUTICAL CO., LTD., priority 2013, dated 2023).

The experiment deals with animal model of dry eye syndrome. The experiment can be described thus: Efficacy analysis of drugs using an animal model of dry eye syndrome (overall, FIGS. 1 to 15). Type of experiment: in vivo, C57BL/6 mice. The following applies: oral administration, overall statement. The text has this:
Experimental Example 1: Efficacy Analysis of Drugs Using an Animal Model of Dry Eye Syndrome
<1-1> Construction of an Animal Model of Dry Eye Syndrome
Eight-week old male C57BL/6 mice (Charles River laboratories) were quarantined for one week and divided into several groups of eight animals evenly according to their average body weight and standard deviation.
For experimental groups (administered with Examples […]), dry eye syndrome was induced by subcutaneous injection of scopolamine (2.5 mg/mL, Sigma-Aldrich) for 10 days with exposure to air draft (25-40% relative humidity) for 18 hours per day. Then, mice were orally administered with the suspensions of Examples 1 to 29, twice a day for total 10 days, respectively.
Meanwhile, for a normal group, neither the drug nor the vehicle was administered to normal mice. And, for a control group, the vehicle was administered to the mice with dry eye syndrome.

For the molecule `O=C(NC(Cc1cc(=O)[nH]c2ccccc12)C(=O)O)c1ccc(Cl)cc1` (stereo not shown) [Rebamipide, 2-(4-chlorobenzoyl-amino)-3-[2(1H)-quinolon-4-yl]propionic acid], the “therapeutic effects on dry eye syndrome” value is on record as “exhibits therapeutic effects on dry eye syndrome”.
